According to PubChem BioAssay (NCI):
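GI50 marks 50% less growth. TGI marks complete inhibition of growth.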

Key:
Assay in all cases: DTP human tumour cell line panel, 384-well format; in the data active means GI50 below about 0.43 µM; inactive means the rest
HCT-15 colon = system: HCT-15 colon
HOP-62 NSCLC = system: HOP-62 NSCLC
MDA-MB-435 melanoma = system: MDA-MB-435 melanoma
SK-MEL-5 melanoma = system: SK-MEL-5 melanoma
RPMI-8226 leukemia = system: RPMI-8226 leukemia
OVCAR-8 ovarian = system: OVCAR-8 ovarian
PC-3 prostate = system: PC-3 prostate
MDA-MB-468 breast = system: MDA-MB-468 breast
NCI-H23 lung = system: NCI-H23 lung
K-562 leukemia = system: K-562 leukemia
NCI-H522 lung = system: NCI-H522 lung
NCI-H460 NSCLC = system: NCI-H460 NSCLC
CAKI-1 renal = system: CAKI-1 renal
HCC-2998 colon = system: HCC-2998 colon
EKVX NSCLC = system: EKVX NSCLC
SK-MEL-28 melanoma = system: SK-MEL-28 melanoma
MCF7 breast = system: MCF7 breast
NCI-H322M lung = system: NCI-H322M lung
SF-268 CNS = system: SF-268 CNS
SW-620 colon = system: SW-620 colon
SF-539 CNS = system: SF-539 CNS
TK-10 renal = system: TK-10 renal
ACHN renal = system: ACHN renal
IGROV1 ovarian = system: IGROV1 ovarian
HS 578T breast = system: HS 578T breast
LOX IMVI melanoma = system: LOX IMVI melanoma
A549 NSCLC = system: A549 NSCLC
HL-60(TB) leukemia = system: HL-60(TB) leukemia
HOP-92 NSCLC = system: HOP-92 NSCLC
CCRF-CEM leukemia = system: CCRF-CEM leukemia
OVCAR-4 ovarian = system: OVCAR-4 ovarian
MOLT-4 leukemia = system: MOLT-4 leukemia
OVCAR-3 ovarian = system: OVCAR-3 ovarian
SR leukemia = system: SR leukemia
786-0 renal = system: 786-0 renal
RXF 393 renal = system: RXF 393 renal
UO-31 renal = system: UO-31 renal
MDA-MB-231 breast = system: MDA-MB-231 breast
OVCAR-5 ovarian = system: OVCAR-5 ovarian
MALME-3M melanoma = system: MALME-3M melanoma
M14 melanoma = system: M14 melanoma
SF-295 CNS = system: SF-295 CNS
DU-145 prostate = system: DU-145 prostate
NCI-H226 lung = system: NCI-H226 lung
SNB-19 CNS = system: SNB-19 CNS
COLO 205 colon = system: COLO 205 colon
UACC-257 melanoma = system: UACC-257 melanoma
NCI/ADR-RES ovarian = system: NCI/ADR-RES ovarian
SN12C renal = system: SN12C renal
SNB-75 CNS = system: SNB-75 CNS
BT-549 breast = system: BT-549 breast
T-47D breast = system: T-47D breast
UACC-62 melanoma = system: UACC-62 melanoma
KM12 colon = system: KM12 colon

COc1cc(OC)c(/C=C/S(=O)(=O)Cc2ccc(OC)c(NCC(=O)O)c2)c(OC)c1
36.4 nM: TGI (NCI/ADR-RES ovarian)
82.7 nM: TGI (M14 melanoma)
92.9 nM: TGI (MALME-3M melanoma)
2040 nM: TGI (SF-268 CNS)
370 nM: TGI (UACC-257 melanoma)
49.4 nM: TGI (RXF 393 renal)
50.8 nM: TGI (SF-539 CNS)
362 nM: TGI (LOX IMVI melanoma)
93.8 nM: TGI (OVCAR-8 ovarian)
211 nM: TGI (SNB-75 CNS)
42.3 nM: TGI (MDA-MB-468 breast)
33 nM: TGI (NCI-H522 lung)
34.7 nM: TGI (HS 578T breast)
31.6 nM: TGI (SR leukemia)
95.5 nM: TGI (OVCAR-4 ovarian)
38.2 nM: TGI (OVCAR-3 ovarian)
537 nM: TGI (COLO 205 colon)
4170 nM: TGI (HOP-92 NSCLC)
45.8 nM: TGI (SK-MEL-5 melanoma)
373 nM: TGI (HCT-15 colon)
> 100000 nM: TGI (HOP-62 NSCLC) | TGI (PC-3 prostate) | TGI (CAKI-1 renal) | TGI (EKVX NSCLC) | TGI (SK-MEL-28 melanoma) | TGI (NCI-H322M lung) | TGI (SW-620 colon) | TGI (TK-10 renal) | TGI (ACHN renal) | TGI (IGROV1 ovarian) | TGI (A549 NSCLC) | TGI (UO-31 renal) | TGI (MDA-MB-231 breast) | TGI (OVCAR-5 ovarian) | TGI (NCI-H226 lung) | TGI (SNB-19 CNS) | TGI (SN12C renal)
101 nM: TGI (HL-60(TB) leukemia)
264 nM: TGI (HCC-2998 colon)
344 nM: TGI (BT-549 breast)
187 nM: TGI (MOLT-4 leukemia)
607 nM: TGI (786-0 renal)
37.5 nM: TGI (RPMI-8226 leukemia)
59.3 nM: TGI (NCI-H460 NSCLC)
109 nM: TGI (K-562 leukemia)
157 nM: TGI (CCRF-CEM leukemia)
active: GI50 (HCT-15 colon) 32.3 nM | GI50 (HOP-62 NSCLC) 42.6 nM | GI50 (MDA-MB-435 melanoma) 17.1 nM | GI50 (SK-MEL-5 melanoma) 19.5 nM | GI50 (RPMI-8226 leukemia) 19 nM | GI50 (OVCAR-8 ovarian) 30.3 nM | GI50 (PC-3 prostate) 31.5 nM | GI50 (MDA-MB-468 breast) 17.5 nM | GI50 (NCI-H23 lung) 24.9 nM | GI50 (K-562 leukemia) 32.4 nM | GI50 (NCI-H522 lung) 14.4 nM | GI50 (NCI-H460 NSCLC) 22.6 nM | GI50 (CAKI-1 renal) 46 nM | GI50 (HCC-2998 colon) 40.5 nM | GI50 (EKVX NSCLC) 41.1 nM | GI50 (SK-MEL-28 melanoma) 63.7 nM | GI50 (MCF7 breast) 47.3 nM | GI50 (NCI-H322M lung) 90.9 nM | GI50 (SF-268 CNS) 51 nM | GI50 (SW-620 colon) 33.8 nM | GI50 (SF-539 CNS) 20.8 nM | GI50 (TK-10 renal) 50.9 nM | GI50 (ACHN renal) 58.9 nM | GI50 (IGROV1 ovarian) 60.4 nM | GI50 (HS 578T breast) 15.4 nM | GI50 (LOX IMVI melanoma) 45.7 nM | GI50 (A549 NSCLC) 61.3 nM | GI50 (HL-60(TB) leukemia) 33.6 nM | GI50 (HOP-92 NSCLC) 38.5 nM | GI50 (CCRF-CEM leukemia) 49.4 nM | GI50 (OVCAR-4 ovarian) 24.6 nM | GI50 (MOLT-4 leukemia) 64.1 nM | GI50 (OVCAR-3 ovarian) 16.8 nM | GI50 (SR leukemia) 16.1 nM | GI50 ([…]-0 renal) 30.7 nM | GI50 (RXF 393 renal) 16.8 nM | GI50 (UO-31 renal) 86.2 nM | GI50 (MDA-MB-231 breast) 92.9 nM | GI50 (OVCAR-5 ovarian) 135 nM | GI50 (MALME-3M melanoma) 25.9 nM | GI50 (M14 melanoma) 25.9 nM | GI50 (SF-295 CNS) 23.1 nM | GI50 (DU-145 prostate) 177 nM | GI50 (NCI-H226 lung) 38.3 nM | GI50 (SNB-19 CNS) 43.9 nM | GI50 (COLO 205 colon) 215 nM | GI50 (UACC-257 melanoma) 17.7 nM | GI50 (NCI/ADR-RES ovarian) 16.4 nM | GI50 (SN12C renal) 63.8 nM | GI50 (SNB-75 CNS) 35.1 nM | GI50 (BT-549 breast) 48.1 nM
36.6 nM: TGI (MDA-MB-435 melanoma)
1040 nM: TGI (DU-145 prostate)
57.6 nM: TGI (SF-295 CNS)
26000 nM: TGI (MCF7 breast)
77.4 nM: TGI (NCI-H23 lung)

CC(=O)N[C@@H]1CCC[C@H](C(=O)Nc2cc(-c3cnn4c3CC(C)(C)C4)c(Cl)cn2)C1
13.9 nM: TGI (HCC-2998 colon)
21.9 nM: TGI (UACC-257 melanoma)
26.7 nM: TGI (SNB-75 CNS)
21800 nM: TGI (HCT-15 colon)
< 10 nM: TGI (UACC-62 melanoma) | TGI (SK-MEL-5 melanoma) | TGI (RPMI-8226 leukemia) | TGI (MDA-MB-468 breast) | TGI (NCI-H322M lung) | TGI (SF-268 CNS) | TGI (SF-539 CNS) | TGI (HS 578T breast) | TGI (HL-60(TB) leukemia) | TGI (CCRF-CEM leukemia) | TGI (MOLT-4 leukemia) | TGI (OVCAR-3 ovarian) | TGI (KM12 colon) | TGI (SR leukemia) | TGI (RXF 393 renal) | TGI (M14 melanoma) | TGI (COLO 205 colon) | TGI (BT-549 breast)
10.3 nM: TGI (NCI-H23 lung)
> 100000 nM: TGI (T-47D breast) | TGI (CAKI-1 renal) | TGI (ACHN renal) | TGI (IGROV1 ovarian) | TGI (UO-31 renal) | TGI (SNB-19 CNS)
44.3 nM: TGI (MDA-MB-435 melanoma)
14 nM: TGI (SN12C renal)
313 nM: TGI (NCI-H460 NSCLC)
14.4 nM: TGI (MALME-3M melanoma)
39.6 nM: TGI (EKVX NSCLC)
620 nM: TGI (NCI/ADR-RES ovarian)
11.4 nM: TGI (SK-MEL-28 melanoma)
36 nM: TGI (NCI-H522 lung)
active: GI50 (HCT-15 colon) < 10 nM | GI50 (T-47D breast) < 10 nM | GI50 (MDA-MB-435 melanoma) < 10 nM | GI50 (UACC-62 melanoma) < 10 nM | GI50 (SK-MEL-5 melanoma) < 10 nM | GI50 (RPMI-8226 leukemia) < 10 nM | GI50 (MDA-MB-468 breast) < 10 nM | GI50 (NCI-H23 lung) < 10 nM | GI50 (NCI-H522 lung) 14.8 nM | GI50 (NCI-H460 NSCLC) < 10 nM | GI50 (CAKI-1 renal) < 10 nM | GI50 (HCC-2998 colon) < 10 nM | GI50 (EKVX NSCLC) < 10 nM | GI50 (SK-MEL-28 melanoma) < 10 nM | GI50 (NCI-H322M lung) < 10 nM | GI50 (SF-268 CNS) < 10 nM | GI50 (SF-539 CNS) < 10 nM | GI50 (ACHN renal) < 10 nM | GI50 (IGROV1 ovarian) < 10 nM | GI50 (HS 578T breast) < 10 nM | GI50 (HL-60(TB) leukemia) < 10 nM | GI50 (CCRF-CEM leukemia) < 10 nM | GI50 (OVCAR-4 ovarian) < 10 nM | GI50 (MOLT-4 leukemia) < 10 nM | GI50 (OVCAR-3 ovarian) < 10 nM | GI50 (KM12 colon) < 10 nM | GI50 (SR leukemia) < 10 nM | GI50 (RXF 393 renal) < 10 nM | GI50 (UO-31 renal) 24.5 nM | GI50 (MALME-3M melanoma) < 10 nM | GI50 (M14 melanoma) < 10 nM | GI50 (SNB-19 CNS) < 10 nM | GI50 (COLO 205 colon) < 10 nM | GI50 (UACC-257 melanoma) < 10 nM | GI50 (NCI/ADR-RES ovarian) 152 nM | GI50 (SN12C renal) < 10 nM | GI50 (SNB-75 CNS) < 10 nM | GI50 (BT-549 breast) < 10 nM
18.3 nM: TGI (OVCAR-4 ovarian)
